Values quoted from earlier work in patent US20190070181A1, “FORMULATION OF TICAGRELOR OR PHARMACEUTICALLY ACCEPTABLE SALT THEREOF” (Jiangsu Hengrui Medicine Co., Ltd., priority 2017, published 2019).

Key:
[1] = not given; remark: listed apart in the source

SMILES | time the IPA effect can be maintained (platelet aggregation; 180 mg loading dose) | IPA maximum (platelet aggregation; 2-4 hours after 180 mg loading dose) | mean inhibition of platelet aggregation (IPA) (platelet aggregation; 0.5 hour after 180 mg loading dose) | average t1/2 (in vivo) | dose up to which the pharmacokinetics is linear (in vivo) | median tmax (oral administration) | average recovery of the radiation in feces (radiolabeled ticagrelor, feces) | average recovery of the radiation (radiolabeled ticagrelor, total) | average recovery of the radiation in urine (radiolabeled ticagrelor, urine) | solubility in water [1]
CCCSc1nc(N[C@@H]2C[C@H]2c2ccc(F)c(F)c2)c2nnn([C@@H]3C[C@H](OCCO)[C@@H](O)[C@H]3O)c2n1 [ticagrelor, (1S,2S,3R,5S)-3-[7-{[(1R,2S)-2-(3,4-difluorophenyl)cyclopropyl]amino}-5-(propylthio)-3H-[1,2,3]-triazolo[4,5-d]pyrimidin-3-yl]-5-(2-hydroxyethoxy)cyclopentane-1,2-diol] | 2 to 8 h | 89% | 41% | about 7 hours | up to 1260 mg | about 1.5 hours | 58% | about 84% | 26% | almost insoluble in water
CCCSc1nc(N[C@@H]2C[C@H]2c2ccc(F)c(F)c2)c2nnn([C@@H]3C[C@H](O)[C@@H](O)[C@H]3O)c2n1 [AR-C124910XX] | – | – | – | about 9 hours | – | – | – | – | – | –
